Data reported in patent US4745067A, “L-aminoacylases” (Microbial Chemistry Research Foundation, priority 1985, dated 1988).
“Also recorded” adds a separate entry of the source. Where two headings read alike, the source gives them in different places.

Assays:
[1] = tested on: L-aminoacylase S1; assay: Substrate profile of L-aminoacylase S1; type: biochemical, Streptomyces hachijoensis; details: for Relative activity (%): compound used as substrate, L-N-acetyl-methionine evaluated to be 100
Method: (§1) The enzymatic activity was measured by using N-acyl derivatives of various amino acids as the substrate.

[2] = tested on: L-aminoacylase S2; assay: Substrate profile of L-aminoacylase S2; type: biochemical, Streptoverticillium rimofaciens; details: for Relative activity (%): compound used as substrate, L-N-acetyl-methionine evaluated to be 100
Method: as §1

[3] = tested on: L-aminoacylase S1; assay: Influence of metal ions on L-aminoacylase S1; type: biochemical, Streptomyces hachijoensis; details: for Relative activity (%): 1 mM metal salt, 37° C. one hour, substrate N-Ac-DB-DOPS, no metal added = 100%
Method: (§2) A potassium phosphate buffer solution (pH 7.0) of the enzyme of the present invention was treated for one hour at various temperatures, and the remaining activity was measured. As the substrate, L-threo-N-acetyl-3-(3,4-dibenzyloxyphenyl)serine (hereinafter referred to simply as N-Ac-DB-DOPS) was employed, and the reaction was conducted at 37° C. for one hour, whereupon freed L-threo-3-(3,4-dibenzyloxyphenyl)serine (hereinafter referred to simply as DB-DOPS) was measured by a ninhydrin method to determine the activity.
L-aminoacylase S1 of the present invention is added to a 0.1 M Veronal buffer solution containing a final concentration of 1 mM of various metal salts, and left to stand at 37° C. for one hour. Then, it was reacted with N-Ac-DB-DOPS as the substrate at 37° C. for 1 hour, whereby the relative activity was measured by the above-mentioned method. The one where no metal was added, was evaluated to be 100%.

[4] = tested on: L-aminoacylase S2; assay: Influence of metal ions on L-aminoacylase S2; type: biochemical, Streptoverticillium rimofaciens; details: for Relative activity (%): 1 mM metal salt, 37° C. 1 hour, substrate N-Ac-DB-DOPS, no metal salt added = 100%
Method: As the substrate, N-Ac-DB-DOPS was used, and the reaction was conducted at 37° C. for one hour, whereby freed DB-DOPS was measured by a ninhydrin method to determine the enzymatic activity.
L-aminoacylase S2 of the present invention was added to 0.1 M Veronal buffer solution containing as the final concentration 1 mM of various metal salts, and the reaction was conducted at 37° C. for 1 hour. Then, it was reacted with N-Ac-DB-DOPS as the substrate at 37° C. for one hour, whereupon the relative activity was measured by the above-mentioned method. The activity of the one where no metal salt was added, was evaluated to be 100%.

[5] = tested on: L-aminoacylase S2; assay: Influence of inhibitors on L-aminoacylase S2; type: biochemical, Streptoverticillium rimofaciens
Method: As the substrate, N-Ac-DB-DOPS was used, and the reaction was conducted at 37° C. for one hour, whereby freed DB-DOPS was measured by a ninhydrin method to determine the enzymatic activity. As shown in the Figure, 20% is deactivated by the treatment at 60° C., and at least 70% is deactivated at 70° C. However, the enzyme is certainly stable at 50° C.
The enzyme of the present invention was left to stand for one hour at 37° C. together with various inhibitors, and then reacted at 37° C. for one hour with N-Ac-DB-DOPS as the substrate, whereupon the remaining activity was measured by the above-mentioned method.

[6] = tested on: L-aminoacylase S1; assay: Influence of inhibitors on L-aminoacylase S1; type: biochemical, Streptomyces hachijoensis
Method: as §2, with “activity. As shown, 95% or more is deactivated by the treatment at pH 7.0 at 60° C., but the enzyme is certainly stable at a temperature of 50° C. or lower.” for “activity.”
The enzyme of the present invention is left to stand at 37° C. for one hour together with various inhibitors, and then reacted with N-Ac-DB-DOPS as the substrate at 37° C. for one hour, whereby the remaining activity was measured by the above-mentioned method.

[7] = L-aminoacylase S2, inhibitor 1 mM, 37° C. one hour, substrate N-Ac-DB-DOPS
[8] = L-aminoacylase S1, inhibitor 1 mM, 37° C. one hour, substrate N-Ac-DB-DOPS

CC(=O)NC(C)c1ccccc1 (racemic) [DL-N--acetyl-α-methylbenzylamine, DL-N-acetyl-α-methylbenzylamine]
Action of the enzyme on the substrate (in words) [1]: does not act
Relative activity (%) [1]: 0%
Action of the enzyme on the substrate (in words) [2]: does not act
Relative activity (%) [2]: 0%

[Ag+] [Ag^+]
Influence of metal ions on activity (in words) [3]: strongly inhibited
Relative activity (%) [3]: 3%
Influence of metal ions on activity (in words) [4]: prohibited; also recorded: strongly inhibited
Relative activity (%) [4]: 0%

[Ca+2] [Ca^++]
Relative activity (%) [3]: 72%
Relative activity (%) [4]: 98%

[Co+2] [Co^++]
Influence of metal ions on activity (in words) [3]: activated
Relative activity (%) [3]: 162%
Influence of metal ions on activity (in words) [4]: prohibited; also recorded: strongly inhibited
Relative activity (%) [4]: 38%

[Cu+2] [Cu^++]
Influence of metal ions on activity (in words) [3]: strongly inhibited
Relative activity (%) [3]: 14%
Influence of metal ions on activity (in words) [4]: prohibited; also recorded: strongly inhibited
Relative activity (%) [4]: 16%

CSCC[C@@H](NC(C)=O)C(=O)O [D-N--acetyl-methionine]
Relative activity (%) [1]: 0%
Relative activity (%) [2]: 0%

CC(=O)N[C@H](Cc1c[nH]c2ccccc12)C(=O)O [D-N--acetyl-tryptophan]
Relative activity (%) [1]: 0%
Relative activity (%) [2]: 0%

[Fe+2] [Fe^++]
Influence of metal ions on activity (in words) [3]: strongly inhibited
Relative activity (%) [3]: 17%
Influence of metal ions on activity (in words) [4]: prohibited; also recorded: strongly inhibited
Relative activity (%) [4]: 18%

[Hg+2] [Hg^++]
Influence of metal ions on activity (in words) [3]: strongly inhibited
Relative activity (%) [3]: 2%
Influence of metal ions on activity (in words) [4]: prohibited; also recorded: strongly inhibited
Relative activity (%) [4]: 15%

CC(=O)N[C@H](C(=O)O)c1ccc(CO)c(O)c1 [L-N--acetyl-2-(4-hydroxymethyl-3-hydroxyphenyl)glycine]
Relative activity (%) [1]: 41%
Relative activity (%) [2]: 65%

CC(=O)N[C@@H](C)C(=O)O [L-N--acetyl-alanine]
Relative activity (%) [1]: 7%
Relative activity (%) [2]: 8%

CC(=O)N[C@@H](CCCNC(=N)N)C(=O)O [L-N--acetyl-arginine]
Relative activity (%) [1]: 85%
Relative activity (%) [2]: 61%

CC(=O)N[C@@H](CCC(=O)O)C(=O)O [L-N--acetyl-glutamic acid]
Relative activity (%) [1]: 19%
Relative activity (%) [2]: 18%

CC(=O)N[C@@H](Cc1c[nH]cn1)C(=O)O [L-N--acetyl-histidine]
Relative activity (%) [1]: 41%
Relative activity (%) [2]: 36%

CC(=O)N[C@@H](CC(C)C)C(=O)O [L-N--acetyl-leucine]
Relative activity (%) [1]: 76%
Relative activity (%) [2]: 71%

CSCC[C@H](NC(C)=O)C(=O)O [L-N--acetyl-methionine, L-N-acetyl-methionine]
Relative activity (%) [1]: 100%
Relative activity (%) [2]: 100%

CC(=O)N[C@@H](Cc1ccccc1)C(=O)O [L-N--acetyl-phenylalanine]
Relative activity (%) [1]: 197%
Relative activity (%) [2]: 286%

CC(=O)N[C@@H](Cc1c[nH]c2ccccc12)C(=O)O [L-N--acetyl-tryptophan]
Relative activity (%) [1]: 80%
Relative activity (%) [2]: 98%

CC(=O)N[C@@H](Cc1ccc(O)cc1)C(=O)O [L-N--acetyl-tyrosine]
Relative activity (%) [2]: 137%

CC(=O)N[C@H](C(=O)O)C(C)C [L-N--acetyl-valine]
Relative activity (%) [1]: 42%
Relative activity (%) [2]: 35%

CSCC[C@H](NC(=O)c1ccccc1)C(=O)O [L-N--benzoyl-methionine]
Relative activity (%) [2]: 10%

CSCC[C@H](NC=O)C(=O)O [L-N--formyl-methionine]
Relative activity (%) [1]: 4%
Relative activity (%) [2]: 5%

N[C@@H](CS)C(=O)O [L-cysteine]
Influence of inhibitors on activity (in words) ([5]; L-aminoacylase S2): strongly inhibited
Remaining activity (%) [5, 7]: 11%
Influence of inhibitors on activity (in words) ([5]; L-aminoacylase S2, listed as cysteine): inhibited

CC(=O)N[C@H](C(=O)O)[C@H](O)c1ccc(OCc2ccccc2)c(OCc2ccccc2)c1 [L-threo-N-acetyl-3-(3,4-dibenzyloxyphenyl)serine]
Relative activity (%) [1]: 14%
Relative activity (%) [2]: 20%

[Mg+2] [Mg^++]
Relative activity (%) [3]: 107%
Relative activity (%) [4]: 95%

[Mn+2] [Mn^++]
Relative activity (%) [3]: 61%
Influence of metal ions on activity (in words) [4]: prohibited; also recorded: strongly inhibited
Relative activity (%) [4]: 31%

O=C(O)CI [Monoiodoacetic acid]
Influence of inhibitors on activity (in words) [6]: not inhibited
Remaining activity (%) [6]: 94%
Influence of inhibitors on activity (in words) [5]: strongly inhibited
Remaining activity (%) [5]: 3%

CC(=O)N[C@H]1C(O)O[C@H](CO)[C@@H](O)[C@@H]1O (stereo partly drawn) [N--acetyl-D-glucosamine, N-acetyl-D-glucosamine]
Action of the enzyme on the substrate (in words) [1]: does not act
Relative activity (%) [1]: 0%
Action of the enzyme on the substrate (in words) [2]: does not act
Relative activity (%) [2]: 0%

CC(=O)NCC(=O)O [N--acetyl-glycine]
Relative activity (%) [1]: 2%
Relative activity (%) [2]: 2%

[Ni+2] [Ni^++]
Influence of metal ions on activity (in words) [3]: strongly inhibited
Relative activity (%) [3]: 7%
Influence of metal ions on activity (in words) [4]: prohibited; also recorded: strongly inhibited
Relative activity (%) [4]: 33%

[Zn+2] [Zn^++]
Relative activity (%) [3]: 102%
Relative activity (%) [4]: 71%

O=C(O)c1cc[c]([Hg][Cl])cc1 [p-chloromercuribenzoate]
Influence of inhibitors on activity (in words) ([6]; L-aminoacylase S1): inhibited
Remaining activity (%) [6, 8]: 2%
Influence of inhibitors on activity (in words) ([5]; L-aminoacylase S2): strongly inhibited
Remaining activity (%) [5, 7]: 0%

OCCS [β-mercaptoethanol]
Remaining activity (%) [6, 8]: 76%
